This note sets out measurements from patent US20090069300A1, “ISOQUINOLINYL AND ISOINDOLINYL DERIVATIVES AS HISTAMINE-3 ANTAGONISTS” (Wyeth, priority 2007, published 2009).

Usually Ki stands for the equilibrium dissociation constant of an inhibitor or competing ligand from its target.

Where a name gives a salt, the structure may show the parent alone. A value given as a limit tells only on which side of the number the result lay.

T1 sequence (Q9Y5N1 whole entry): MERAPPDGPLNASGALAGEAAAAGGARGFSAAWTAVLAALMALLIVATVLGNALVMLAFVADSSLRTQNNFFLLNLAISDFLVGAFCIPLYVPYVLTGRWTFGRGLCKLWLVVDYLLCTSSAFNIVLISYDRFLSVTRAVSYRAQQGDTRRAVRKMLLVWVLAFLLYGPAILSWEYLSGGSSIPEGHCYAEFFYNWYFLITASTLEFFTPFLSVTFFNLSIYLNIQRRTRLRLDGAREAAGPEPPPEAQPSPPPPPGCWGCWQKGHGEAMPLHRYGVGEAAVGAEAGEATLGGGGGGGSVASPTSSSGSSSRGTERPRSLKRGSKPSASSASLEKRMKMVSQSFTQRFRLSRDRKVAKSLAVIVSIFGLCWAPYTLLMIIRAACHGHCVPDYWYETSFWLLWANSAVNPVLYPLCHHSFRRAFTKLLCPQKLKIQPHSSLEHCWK

This assay addresses T1, Human Histamine H3 Receptor (Homo sapiens, UniProt Q9Y5N1).
T1 construct: expressed in transfected cells; host or cells: HEK293T (stably transfected; membranes prepared from the cells)
The assay is described as follows: Methyl histamine binding in human histamine H3 receptor cell line. The settings on record: read-out: H3 Binding Ki. On the procedure:
Evaluation of Methyl Histamine Binding in Human Histamine H3 Receptor Cell Line
The affinity of test compounds for the histamine 3 (H3) receptor is evaluated in the following manner. […] Cells are scraped from the plate, transferred to centrifuge tubes, washed one time in PBS by centrifugation in a Sorvall RT7 Plus centrifuge (2000 rpm 10 minutes, 4° C.). The resulting pellets are stored at −80° C. until ready for use. Cells are re-suspended in buffer (50 mM Tris pH=7.5) and placed in a Dounce homogenizer, douncing ten times to homogenize cells. The homogenate is spun down by centrifugation (Sorvall RT7 Plus, 1800 rpm 10 minutes, 4° C.). The supernatant is placed in a Corex tube and spun down by centrifugation (Sorvall RC 5c Plus, 17,000 rpm 20 minutes, 4° C.). The pellet is resuspended in buffer (50 mM Tris, pH 7.5). Protein concentration (ug/ul) is determined using the Micro-BCA Protein Determination. The binding assay is set up in a 96 well microtiter plate in a total volume of 250 uL. Non-specific binding is determined in the presence of 10 uM clobenpropit. The final radioligand concentration is 1 nM. The test compound is serially diluted using the Beckman Biomek2000 to a final approximate range of 100 uM to 100 pM. Membranes are suspended in buffer, homogenized in 2 bursts of ten seconds using a Vitris mechanical homogenizer set at power setting 5. Ten μg of membranes are added to each well. Following a one hour incubation at 30° C., the reaction is terminated by the addition of ice cold buffer and rapid filtration with a Packard Filtermate Harvester through a GF/B filter pre-soaked with 1% PEI for one hour. The plate is dried for one hour at 37° C. and 60 μL Microscint Scintillant is added to each well. The CPM per well is measured on a Packard Top Count NXT. Ki values are determined in nM. […] CPM values are expressed as % specific binding and plotted vs compound concentration. A curve is fitted using a four-parameter logistic fit and the IC50 value is determined. The Ki is calculated from this using the Cheng-Prusoff equation: […]=IC50/1+(L/Kd) where L=concentration of free radioligand used in the assay, and Kd is the dissociation constant of the radioligand for the receptor. L is determined for each experiment by counting an aliquot of the diluted radioligand (corresponding to that added to each well) and the Kd has previously been determined under identical conditions for this cell line/radioligand.
On to `O=C1c2ccc(-c3ccc(F)cc3)cc2CCN1CCN1CCCCCC1` [Example 44, 2-(2-azepan-1-ylethyl)-6-(4-fluorophenyl)-3,4-dihydroisoquinolin-1(2H)-one hydrochloride], for which the Ki was < 10 nM.

With `N#Cc1ccc(-c2ccc3c(c2)CCN(CCCN2CCCCC2)C3=O)cc1` [Example 45, 4-[1-oxo-2-(3-piperidin-1-ylpropyl)-1,2,3,4-tetrahydroisoquinolin-6-yl]benzonitrile hydrochloride], the inhibitory constant (Ki) is 10.1 to 25 nM.

As to `N#Cc1ccc(Oc2ccc3c(c2)CCN(CCN2CCCC2)C3=O)nc1` [Example 47, 6-{[1-oxo-2-(2-pyrrolidin-1-ylethyl)-1,2,3,4-tetrahydroisoquinolin-6-yl]oxy}nicotinonitrile], the inhibition constant Ki fell in the range of 10.1 to 25 nM.

In the case of `C[C@@H]1CCCN1CCN1CCc2cc(Oc3ccc(C#N)cn3)ccc2C1=O` [Example 48, 6-[(2-{2-[(2R)-2-methylpyrrolidin-1-yl]ethyl}-1-oxo-1,2,3,4-tetrahydroisoquinolin-6-yl)oxy]nicotinonitrile], the Ki was < 10 nM.

As to `C[C@@H]1CCCN1CCN1CCc2cc(Oc3ccc(C#N)cc3)ccc2C1=O` [Example 49, 4-[(2-{2-[(2R)-2-methylpyrrolidin-1-yl]ethyl}-1-oxo-1,2,3,4-tetrahydroisoquinolin-6-yl)oxy]benzonitrile], the Ki was < 10 nM.

Consider `N#Cc1ccc(Oc2ccc3c(c2)CCN(CCN2CCCC2)C3=O)cc1` [Example 50, 4-{[1-oxo-2-(2-pyrrolidin-1-ylethyl)-1,2,3,4-tetrahydroisoquinolin-6-yl]oxy}benzonitrile], for which the inhibition constant Ki was < 10 nM.

Turning to `C[C@@H]1CCCN1CCN1CCc2cc(Oc3ccc(C#N)nc3)ccc2C1=O` [Example 51, 5-[(2-{2-[(2R)-2-methylpyrrolidin-1-yl]ethyl}-1-oxo-1,2,3,4-tetrahydroisoquinolin-6-yl)oxy]pyridine-2-carbonitrile], the Ki is < 10 nM.

`N#Cc1ccc(Oc2ccc3c(c2)CCN(CCN2CCCC2)C3=O)cn1` [Example 52, 5-{[1-oxo-2-(2-pyrrolidin-1-ylethyl)-1,2,3,4-tetrahydroisoquinolin-6-yl]oxy}pyridine-2-carbonitrile]: the Ki was < 10 nM.

With `O=C(c1ccc(-c2ccc3c(c2)CCN(CCN2CCCC2)C3=O)cc1)N1CCCC1` [Example 54, 6-[4-(pyrrolidin-1-ylcarbonyl)phenyl]-2-(2-pyrrolidin-1-ylethyl)-3,4-dihydroisoquinolin-1(2H)-one hydrochloride], the inhibition constant Ki is < 10 nM.

In the case of `CN(C)C(=O)c1ccc(-c2ccc3c(c2)CCN(CCN2CCCC2)C3=O)cc1` [Example 56, N,N-dimethyl-4-[1-oxo-2-(2-pyrrolidin-1-ylethyl)-1,2,3,4-tetrahydroisoquinolin-6-yl]benzamide], the Ki is < 10 nM.

For `O=C(NC1CC1)c1ccc(-c2ccc3c(c2)CCN(CCN2CCCC2)C3=O)cc1` [Example 57, N-cyclopropyl-4-[1-oxo-2-(2-pyrrolidin-1-ylethyl)-1,2,3,4-tetrahydroisoquinolin-6-yl]benzamide], the inhibition constant Ki is < 10 nM.

In the case of `CCNC(=O)c1ccc(-c2ccc3c(c2)CCN(CCN2CCCC2)C3=O)cc1` [Example 58, N-ethyl-4-[1-oxo-2-(2-pyrrolidin-1-ylethyl)-1,2,3,4-tetrahydroisoquinolin-6-yl]benzamide], the Ki is < 10 nM.

Take `CNC(=O)c1ccc(-c2ccc3c(c2)CCN(CCN2CCCC2)C3=O)cc1` [Example 59, N-methyl-4-[1-oxo-2-(2-pyrrolidin-1-ylethyl)-1,2,3,4-tetrahydroisoquinolin-6-yl]benzamide]: the inhibition constant (Ki) is < 10 nM.

As to `O=C(NCC1CC1)c1ccc(-c2ccc3c(c2)CCN(CCN2CCCC2)C3=O)cc1` [Example 60, N-(cyclopropylmethyl)-4-[1-oxo-2-(2-pyrrolidin-1-ylethyl)-1,2,3,4-tetrahydroiso-quinolin-6-yl]benzamide], the Ki was < 10 nM.

On to `CC(C)NC(=O)c1ccc(-c2ccc3c(c2)CCN(CCN2CCCC2)C3=O)cc1` [Example 61, N-isopropyl-4-[1-oxo-2-(2-pyrrolidin-1-ylethyl)-1,2,3,4-tetrahydroisoquinolin-6-yl]benzamide], for which the Ki was < 10 nM.

Consider `CCN(CC)C(=O)c1ccc(-c2ccc3c(c2)CCN(CCN2CCCC2)C3=O)cc1` [Example 62, N,N-diethyl-4-[1-oxo-2-(2-pyrrolidin-1-ylethyl)-1,2,3,4-tetrahydroisoquinolin-6-yl]benzamide], for which the Ki is < 10 nM.

Regarding `O=C(NC1CCC1)c1ccc(-c2ccc3c(c2)CCN(CCN2CCCC2)C3=O)cc1` [Example 63, N-cyclobutyl-4-[1-oxo-2-(2-pyrrolidin-1-ylethyl)-1,2,3,4-tetrahydroisoquinolin-6-yl]benzamide], the inhibition constant Ki was < 10 nM.

For `O=C(c1ccc(-c2ccc3c(c2)CCN(CCN2CCCC2)C3=O)cc1)N1CCC1` [Example 64, 6-[4-(azetidin-1-ylcarbonyl)phenyl]-2-(2-pyrrolidin-1-ylethyl)-3,4-dihydroisoquinolin-1(2H)-one], the Ki was < 10 nM.

For the molecule `CCN(CC)C(=O)c1ccc(-c2ccc3c(c2)CCN(CCN2CCC[C@H]2C)C3=O)cc1` [Example 65, N,N-diethyl-4-(2-{2-[(2R)-2-methylpyrrolidin-1-yl]ethyl}-1-oxo-1,2,3,4-tetrahydroisoquinolin-6-yl)benzamide], the inhibitory constant (Ki) was < 10 nM.

On to `C[C@@H]1CCCN1CCN1CCc2cc(-c3ccc(C(=O)N4CCCC4)cc3)ccc2C1=O` [Example 66, 2-{2-[(2R)-2-methylpyrrolidin-1-yl]ethyl}-6-[4-(pyrrolidin-1-ylcarbonyl)phenyl]-3,4-dihydroisoquinolin-1(2H)-one], for which the Ki was < 10 nM.

As for `NC(=O)c1ccc(-c2ccc3c(c2)CCN(CCN2CCCC2)C3=O)cc1` [Example 67, 4-[1-oxo-2-(2-pyrrolidin-1-ylethyl)-1,2,3,4-tetrahydroisoquinolin-6-yl]benzamide], the Ki was < 10 nM.

Consider `O=C(NCCF)c1ccc(-c2ccc3c(c2)CCN(CCN2CCCC2)C3=O)cc1` [Example 68, N-(2-fluoroethyl)-4-[1-oxo-2-(2-pyrrolidin-1-ylethyl)-1,2,3,4-tetrahydroisoquinolin-6-yl]benzamide], for which the inhibition constant (Ki) is < 10 nM.

On to `COCCNC(=O)c1ccc(-c2ccc3c(c2)CCN(CCN2CCCC2)C3=O)cc1` [Example 69, N-(2-methoxyethyl)-4-[1-oxo-2-(2-pyrrolidin-1-ylethyl)-1,2,3,4-tetrahydroisoquinolin-6-yl]benzamide], for which the inhibition constant Ki is < 10 nM.

For `CC(C)OCCNC(=O)c1ccc(-c2ccc3c(c2)CCN(CCN2CCCC2)C3=O)cc1` [Example 70, N-(2-isopropoxyethyl)-4-[1-oxo-2-(2-pyrrolidin-1-ylethyl)-1,2,3,4-tetrahydroisoquinolin-6-yl]benzamide], the Ki was < 10 nM.

In the case of `O=C(NCCOc1ccccc1)c1ccc(-c2ccc3c(c2)CCN(CCN2CCCC2)C3=O)cc1` [Example 71, 4-[1-oxo-2-(2-pyrrolidin-1-ylethyl)-1,2,3,4-tetrahydroisoquinolin-6-yl]-N-(2-phenoxyethyl)-benzamide], the Ki was in the range of 50.1 to 100 nM.

On to `CCOCCNC(=O)c1ccc(-c2ccc3c(c2)CCN(CCN2CCCC2)C3=O)cc1` [Example 72, N-(2-ethoxyethyl)-4-[1-oxo-2-(2-pyrrolidin-1-ylethyl)-1,2,3,4-tetrahydroisoquinolin-6-yl]benzamide], for which the Ki is 10.1 to 25 nM.

Turning to `C[C@@H]1CCCN1CCN1CCc2cc(-c3ccc(C(=O)NCC4CC4)cc3)ccc2C1=O` [Example 73, N-(cyclopropylmethyl)-4-(2-{2-[(2R)-2-methylpyrrolidin-1-yl]ethyl}-1-oxo-1,2,3,4-tetrahydroisoquinolin-6-yl)benzamide], the Ki is < 10 nM.

On to `C[C@@H]1CCCN1CCN1CCc2cc(-c3ccc(C(=O)NC4CCC4)cc3)ccc2C1=O` [Example 74, N-cyclobutyl-4-(2-{2-[(2R)-2-methylpyrrolidin-1-yl]ethyl}-1-oxo-1,2,3,4-tetrahydroisoquinolin-6-yl)benzamide], for which the inhibition constant (Ki) was < 10 nM.

On to `CCNC(=O)c1ccc(-c2ccc3c(c2)CCN(CCN2CCC[C@H]2C)C3=O)cc1` [Example 75, N-ethyl-4-(2-{2-[(2R)-2-methylpyrrolidin-1-yl]ethyl}-1-oxo-1,2,3,4-tetrahydroisoquinolin-6-yl)benzamide], for which the Ki is < 10 nM.

Regarding `C[C@@H]1CCCN1CCN1CCc2cc(-c3ccc(C(=O)NC4CC4)cc3)ccc2C1=O` [Example 76, N-cyclopropyl-4-(2-{2-[(2R)-2-methylpyrrolidin-1-yl]ethyl}-1-oxo-1,2,3,4-tetrahydroisoquinolin-6-yl)benzamide], the Ki was < 10 nM.
